The values below come from EP3345917A1, “ANTIPROTOZOAL COMPOUNDS” (Bacoba AG, priority 2017, dated 2018).

Molecules are shown by their SMILES. Non-standard residues stand in square brackets, D forms with d. Residues, ends and D or L forms follow the SMILES beside them. *: point of attachment. Hexenoyl(2E,4S-Me) = CC[C@H](C)/C=C/C(=O)*; Leu(3R-OH) = CC(C)[C@@H](O)[C@H](N)C(=O)O; NH((S)CH(Me)CH2NMe2) = C[C@@H](CN(C)C)N*; NH(2-morpholinoethyl) = C(CN1CCOCC1)N*; Gly(octyl) = CCCCCCCC[C@H](N)C(=O)O; hCha = N[C@@H](CCC1CCCCC1)C(=O)O; NH(CH2)3NMe2 = CN(C)CCCN*; NHCH2CH2NMe2 = CN(C)CCN*; Hexanoyl = CCCCCC(=O)*; Aib = CC(C)(N)C(=O)O; X9 = c1ccn(CCN*)c1; Ms = CS(=O)(=O)*; βAla = NCCC(=O)O

Series [1] has as its system Trypanosoma cruzi trypomastigote forms (Tulahuen strain). Nature of the series: Intracellular Trypanosoma cruzi assay in L6-cells, beta-galactosidase/CPRG readout. The class given is cell-based. The following applies: In vitro inhibition, read-out: T.cruzi. An outline of the steps: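 Readout was β-galactosidase cleavage of CPRG, read photometrically at 540 nm after 2–6 h colour development, giving IC50 values. Parasites: LacZ-expressing Tulahuen C2C4 strain grown in rat L6 myoblasts; run in triplicate.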

Series [2] concerns Trypanosoma brucei rhodesiense (STIB 900 strain). Nature of the series: Alamar Blue assay against Trypanosoma brucei rhodesiense grown in axenic medium. Type of series: cell-based. To be noted: In vitro inhibition, read-out: T.b.rhod. An outline of the steps:
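Alamar Blue-based IC50 determination, in triplicate, on axenically grown STIB 900 trypanosomes. Melarsoprol included as reference.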
(In general: Resazurin is reduced to fluorescent resorufin, in cell work by metabolically active cells.)

The subject of series [3] is intracellular Leishmania donovani (L.don. InMac). Nature of the series: Intracellular Leishmania donovani assay (L.don. InMac). Type of series: cell-based. To be noted: In vitro inhibition. An excerpt:
(§1) Tests were done in triplicate.

The subject of series [4] is Plasmodium falciparum. The experiment in a line: 3H-hypoxanthine incorporation assay against Plasmodium falciparum. The following applies: In vitro inhibition, read-out: P.falc NF5. Type of series: cell-based. The protocol: as §1
IC50 values were calculated by linear interpolation.

Series [5] can be described thus: Cytotoxicity assay on L6-cells (Alamar Blue). To be noted: rat, Cytotox L6, Cytotoxicity against rat myoblast cells (L6).
Series [6] has as its system Axenically grown Leishmania donovani amastigotes (strain MHOM/ET/67/L82). The experiment in a line: Axenic Leishmania donovani amastigote resazurin assay. The class given is cell-based. The following applies: In vitro inhibition, read-out: L.don. ax. An outline of the steps: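 IC50 values derive from resazurin fluorescence (ex 536 nm, em 588 nm), expressed relative to the negative control, after 2-4 hours of plate development. Axenic amastigotes of strain MHOM/ET/67/L82 were used; each test run in triplicate.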

As for `CCCCCCCC[C@H](NC(=O)[C@@H]1CCCN1C(C)=O)C(=O)N[C@H](C(=O)NC(C)(C)C(=O)N[C@@H](CC(C)C)C(=O)N[C@@H](CC(C)C)C(=O)NC(C)(C)C(=O)NC(C)(C)C(=O)NCCC(=O)N[C@@H](C)CN(C)C)[C@H](O)C(C)C` [Compound 5588, (2S)-2-{[(2S)-1-acetylpyrrolidin-2-yl]formamido}-N-[(1S,2R)-1-[(1-{[(1S)-1-{[(1S)-1-{[1-({1-[(2-{[(2S)-1-(dimethylamino)propan-2-yl]carbamoyl}ethyl)carbamoyl]-1-methylethyl}carbamoyl)-1-methylethyl]carbamoyl}-3-methylbutyl]carbamoyl}-3-methylbutyl]carbamoyl}-1-methylethyl)carbamoyl]-2-hydroxy-3-methylbutyl]decanamide] (Ac-P[Gly(octyl)][Leu(3R-OH)][Aib]LL[Aib][Aib][βAla]-{NH((S)CH(Me)CH2NMe2)}), the IC50 in series [1] stood at 2.33 µM; in series [2], 0.006 µM; in series [3], 0.463 µM; in series [4] it was 0.0096 µM; in series [6], 0.0046 µM. The IC50 at 70 h in series [5] was determined as 3.54 µM.

With `CCCCCCCC[C@H](NC(=O)[C@@H]1CCCN1C(=O)CCCCC)C(=O)N[C@H](C(=O)NC(C)(C)C(=O)N[C@@H](CC(C)C)C(=O)N[C@@H](CC(C)C)C(=O)NC(C)(C)C(=O)NC(C)(C)C(=O)NCCC(=O)N[C@@H](C)CN(C)C)[C@H](O)C(C)C` [Compound 5517, (2S)-N-[(1S,2R)-1-[(1-{[(1S)-1-{[(1S)-1-{[1-({1-[(2-{[(2S)-1-(dimethylamino)propan-2-yl]carbamoyl}ethyl)carbamoyl]-1-methylethyl}carbamoyl)-1-methylethyl]carbamoyl}-3-methylbutyl]carbamoyl}-3-methylbutyl]carbamoyl}-1-methylethyl)carbamoyl]-2-hydroxy-3-methylbutyl]-2-{[(2S)-1-hexanoylpyrrolidin-2-yl]formamido}decanamide] (Hexanoyl-P[Gly(octyl)][Leu(3R-OH)][Aib]LL[Aib][Aib][βAla]-{NH((S)CH(Me)CH2NMe2)}), the IC50 turned out to be 0.0453 µM in series [1]; 0.0001 µM in series [2]; 0.142 µM in series [3]; 0.0011 µM in series [4]; 0.0009 µM in series [6]. The compound further registered an IC50 at 70 h in series [5] of 0.338 µM.

For `CCCCCC(=O)N1CCC[C@H]1C(=O)N[C@@H](CCC1CCCCC1)C(=O)N[C@@H](CC(C)C)C(=O)NC(C)(C)C(=O)N[C@@H](CC(C)C)C(=O)N[C@@H](CC(C)C)C(=O)NC(C)(C)C(=O)NC(C)(C)C(=O)NCCC(=O)N[C@@H](C)CN(C)C` [Compound 5942, (2S)-2-[(2S)-4-cyclohexyl-2-{[(2S)-1-hexanoylpyrrolidin-2-yl]formamido}butanamido]-N-(1-{[(1S)-1-{[(1S)-1-{[1-({1-[(2-{[(2S)-1-(dimethylamino)propan-2-yl]carbamoyl}ethyl)carbamoyl]-1-methylethyl}carbamoyl)-1-methylethyl]carbamoyl}-3-methylbutyl]carbamoyl}-3-methylbutyl]carbamoyl}-1-methylethyl)-4-methylpentanamide] (Hexanoyl-P[hCha]L[Aib]LL[Aib][Aib][βAla]-{NH((S)CH(Me)CH2NMe2)}), the IC50 in series [1] was 0.004 µM; in series [2], 0.0003 µM; in series [3] it was less than 0.0354 µM; in series [4] it was 0.0009 µM; in series [6], 42.6 µM. Besides, the IC50 at 70 h in series [5] was 0.148 µM.

`CCCCCCCC[C@H](NC(=O)[C@@H]1CCCN1C(=O)CCCCC)C(=O)N[C@@H](CC(C)C)C(=O)NC(C)(C)C(=O)N[C@@H](CC(C)C)C(=O)N[C@@H](CC(C)C)C(=O)NC(C)(C)C(=O)NC(C)(C)C(=O)NCCC(=O)NCCCN(C)C` [Compound 5890, (2S)-N-[(1S)-1-[(1-{[(1S)-1-{[(1S)-1-{[1-({1-[(2-{[3-(dimethylamino)propyl]carbamoyl}ethyl)carbamoyl]-1-methylethyl}carbamoyl)-1-methylethyl]carbamoyl}-3-methylbutyl]carbamoyl}-3-methylbutyl]carbamoyl}-1-methylethyl)carbamoyl]-3-methylbutyl]-2-{[(2S)-1-hexanoylpyrrolidin-2-yl]formamido}decanamide] (Hexanoyl-P[Gly(octyl)]L[Aib]LL[Aib][Aib][βAla]-{NH(CH2)3NMe2}): the IC50 came to 0.044 µM in series [1]; 44.2 µM in series [2]; 42.5 µM in series [3]; 0.0002 µM in series [4]; 0.0007 µM in series [6]. The IC50 at 70 h in series [5] was found to be 0.593 µM.

Regarding `CCCCCCCC[C@H](NC(=O)[C@@H]1CCCN1S(C)(=O)=O)C(=O)N[C@@H](CC(C)C)C(=O)NC(C)(C)C(=O)N[C@@H](CC(C)C)C(=O)N[C@@H](CC(C)C)C(=O)NC(C)(C)C(=O)NC(C)(C)C(=O)NCCC(=O)N[C@@H](C)CN(C)C` [Compound 5652, (2S)-N-[(1S)-1-[(1-{[(1S)-1-{[(1S)-1-{[1-({1-[(2-{[(2S)-1-(dimethylamino)propan-2-yl]carbamoyl}ethyl)carbamoyl]-1-methylethyl}carbamoyl)-1-methylethyl]carbamoyl}-3-methylbutyl]carbamoyl}-3-methylbutyl]carbamoyl}-1-methylethyl)carbamoyl]-3-methylbutyl]-2-{[(2S)-1-methanesulfonylpyrrolidin-2-yl]formamido}decanamide] (Ms-P[Gly(octyl)]L[Aib]LL[Aib][Aib][βAla]-{NH((S)CH(Me)CH2NMe2)}), the IC50 was 0.436 µM in series [1]; 0.004 µM in series [2]; 0.166 µM in series [3]; 0.0046 µM in series [4]; 0.0081 µM in series [6]. This compound returned an IC50 at 70 h in series [5] of 1.41 µM.

Turning to `CCCCCCCC[C@H](NC(=O)[C@@H]1CCCN1C(=O)CCCCC)C(=O)N[C@@H](CC(C)C)C(=O)NC(C)(C)C(=O)N[C@@H](CC(C)C)C(=O)N[C@@H](CC(C)C)C(=O)NC(C)(C)C(=O)NC(C)(C)C(=O)NCCC(=O)NCCn1cccc1` [Compound 5887, (2S)-2-{[(2S)-1-hexanoylpyrrolidin-2-yl]formamido}-N-[(1S)-3-methyl-1-[(1-methyl-1-{[(1S)-3-methyl-1-{[(1S)-3-methyl-1-{[1-methyl-1-({1-methyl-1-[(2-{[2-(1H-pyrrol-1-yl)ethyl]carbamoyl}ethyl)carbamoyl]ethyl}carbamoyl)ethyl]carbamoyl}butyl]carbamoyl}butyl]carbamoyl}ethyl)carbamoyl]butyl]decanamide] (Hexanoyl-P[Gly(octyl)]L[Aib]LL[Aib][Aib][βAla]-X9), the IC50 in series [1] came to 0.262 µM; in series [2], 46.8 µM; in series [3] it was 0.0417 µM; in series [4] it was 42.7 µM; in series [6], 35.5 µM. This compound came in with an IC50 at 70 h in series [5] of 0.479 µM.

Regarding `CCCCCCCC[C@H](NC(=O)[C@@H]1CCCN1C(=O)CCCCC)C(=O)N[C@@H](CC(C)C)C(=O)NC(C)(C)C(=O)N[C@@H](CC(C)C)C(=O)N[C@@H](CC(C)C)C(=O)NC(C)(C)C(=O)NC(C)(C)C(=O)NCCC(=O)NCCN(C)C` [Compound 5643, (2S)-N-[(1S)-1-[(1-{[(1S)-1-{[(1S)-1-{[1-({1-[(2-{[2-(dimethylamino)ethyl]carbamoyl}ethyl)carbamoyl]-1-methylethyl}carbamoyl)-1-methylethyl]carbamoyl}-3-methylbutyl]carbamoyl}-3-methylbutyl]carbamoyl}-1-methylethyl)carbamoyl]-3-methylbutyl]-2-{[(2S)-1-hexanoylpyrrolidin-2-yl]formamido}decanamide] (Hexanoyl-P[Gly(octyl)]L[Aib]LL[Aib][Aib][βAla]-NHCH2CH2NMe2), the IC50 in series [1] was found to be 0.0898 µM; in series [2], 0.0049 µM; in series [3] it was 0.107 µM; in series [4], 0.003 µM; in series [6], 0.0036 µM. In series [5], this compound had an IC50 at 70 h of 0.862 µM.

On to `CCCCCCCC[C@H](NC(=O)[C@@H]1CCCN1C(=O)/C=C/[C@@H](C)CC)C(=O)N[C@H](C(=O)NC(C)(C)C(=O)N[C@@H](CC(C)C)C(=O)N[C@@H](CC(C)C)C(=O)NC(C)(C)C(=O)NC(C)(C)C(=O)NCCC(=O)NCCN1CCOCC1)[C@H](O)C(C)C` [Compound 5569, (2S)-N-[(1S,2R)-2-hydroxy-3-methyl-1-[(1-methyl-1-{[(1S)-3-methyl-1-{[(1S)-3-methyl-1-{[1-methyl-1-({1-methyl-1-[(2-{[2-(morpholin-4-yl)ethyl]carbamoyl}ethyl)carbamoyl]ethyl}carbamoyl)ethyl]carbamoyl}butyl]carbamoyl}butyl]carbamoyl}ethyl)carbamoyl]butyl]-2-{[(2S)-1-[(2E,4S)-4-methylhex-2-enoyl]pyrrolidin-2-yl]formamido}decanamide] ({Hexenoyl(2E,4S-Me)}-P[Gly(octyl)][Leu(3R-OH)][Aib]LL[Aib][Aib][βAla]-{NH(2-morpholinoethyl)}), for which the IC50 was found to be 0.143 µM in series [1]; 0.0017 µM in series [2]; 0.107 µM in series [3]; 0.0179 µM in series [4]; 0.0038 µM in series [6]. This compound gave an IC50 at 70 h in series [5] of 2.42 µM.
